Assay: Stability of API and 1:1 API/excipient mixtures stored under accelerated conditions, residual assay of API by HPLC
Format: physicochemical
Details: mixture
Experimental: As disclosed in Table 1 below, after preparing a mixture by mixing API, 1-(3-cyano-1-isopropyl-indol-5-yl)pyrazol-4-carboxylic acid, with various types of excipients such as microcrystalline cellulose, the residual assay of API at the initial stage and after 1 month, 2 months, and 3 months storage, respectively, under accelerated conditions (40° C., 75% RH; relative humidity) were measured through the analysis method and process described below.
• HPLC analysis conditions are as follows: • Column: Inertsil ODS-2 (4.6×150 mm, 5 μm, GL Science) • Detector: 254 nm, UV • Flow Rate: […] • Injection Volume: […] • Column Temperature: 40° C. • Eluent • A: Acetonitril/Purified water/TFA(Trifluoroacetic acid)=40/60/0.1(v/v/v) • B: Acetonitril/Purified water/TFA=80/20/0.1(v/v/v)

residual assay of API, 3 Months (after 3 months storage under accelerated conditions (40° C., 75% RH)): 98.7%
residual assay of API, Initial (initial stage, accelerated conditions (40° C., 75% RH)): 98.7%
Structure (SMILES): CC(C)n1cc(C#N)c2cc(-n3cc(C(=O)O)cn3)ccc21 [Comparative Example 1, 1-(3-cyano-1-isopropyl-indol-5-yl)pyrazol-4-carboxylic acid]

From patent US20240000751A1, “STABLE ORAL FORMULATION CONTAINING 1-(3-CYANO-1-ISOPROPYL-INDOL-5-YL)PYRAZOLE-4-CARBOXYLIC ACID” (LG CHEM, LTD., priority 2020, published 2024)
